Measured values published in US20170056423A1 (Gilead Sciences, Inc., priority 2012, published 2017).
Like-named read-outs stand apart in the source and are kept apart here.

Experiments:
[1] = Excerpt: Chemical stability of the hemifumarate form of tenofovir alafenamide was compared with the monofumarate form. […] Conditions evaluated include temperature, relative humidity (RH), and the open or closed state of the container cap.
[2] = for thermodynamic stability in solvents: toluene, MTBE, acetone, THF, 2-methyl THF
[3] = 25° C., relative humidity of 90%
Description: DVS analysis was conducted using 4.951 mg of tenofovir alafenamide hemifumarate. The material was kept at 25° C. in nitrogen at humidities ranging from 10% to 90% relative humidity: each step was equilibrated for 120 minutes.

[4] = 40° C./75% RH Cap Closed, 0 weeks
[5] = 40° C./75% RH Cap Closed, 1 week
[6] = 40° C./75% RH Cap Closed, 2 weeks
[7] = 40° C./75% RH Cap Closed, 4 weeks
[8] = 40° C./75% RH Cap Closed, 8 weeks
[9] = 40° C./75% RH Cap Open, 0 weeks
[10] = 40° C./75% RH Cap Open, 2 weeks
[11] = 40° C./75% RH Cap Open, 4 weeks
[12] = 40° C./75% RH Cap Open, 8 weeks

Substance | % TA Area Normalized [1, 4] | % Total Deg. Products [1, 4] | % TA Area Normalized [1, 5] | % Total Deg. Products [1, 5] | % TA Area Normalized [1, 6] | % Total Deg. Products [1, 6] | % TA Area Normalized [1, 7] | % Total Deg. Products [1, 7] | % TA Area Normalized [1, 8] | % Total Deg. Products [1, 8] | % TA Area Normalized [1, 9] | % Total Deg. Products [1, 9] | % TA Area Normalized ([1]; 40° C./75% RH Cap Open, 1 week) | % Total Deg. Products ([1]; 40° C./75% RH Cap Open, 1 week) | % TA Area Normalized [1, 10] | % Total Deg. Products [1, 10] | % TA Area Normalized [1, 11] | % Total Deg. Products [1, 11] | % TA Area Normalized [1, 12] | % Total Deg. Products [1, 12] | further results
tenofovir alafenamide monofumarate [Monofumarate form] | 97.1% | 0.69% | 97.0% | 0.87% | 96.6% | 1.18% | 96.4% | 1.49% | 95.4% | 2.36% | 97.1% | 0.69% | 96.9% | 0.90% | 96.6% | 1.10% | 96.2% | 1.67% | 95.0% | 2.74% | % TA Area Normalized ([1]; 70° C. Cap Closed, 0 weeks): 97.1%; % Total Deg. Products ([1]; 70° C. Cap Closed, 0 weeks): 0.69%; % TA Area Normalized ([1]; 70° C. Cap Closed, 2 weeks): 96.2%; % Total Deg. Products ([1]; 70° C. Cap Closed, 2 weeks): 1.83%; % TA Area Normalized ([1]; 70° C. Cap Closed, 4 weeks): 93.3%; % Total Deg. Products ([1]; 70° C. Cap Closed, 4 weeks): 4.78%; form conversion when suspended in solvent ([2]; ACN, ethyl acetate, MTBE, and acetone): partially converts to the hemifumarate form; thermodynamic stability in solvents ([2]; ACN, ethyl acetate): not thermodynamically stable; form conversion when suspended in solvent ([2]; THF and 2-methyl THF): fully converts to the hemifumarate form
tenofovir alafenamide hemifumarate | 98.4% | 0.05% | 98.4% | 0.14% | 98.5% | 0.14% | 98.4% | 0.25% | 98.0% | 0.49% | 98.4% | 0.05% | 98.5% | 0.15% | 98.5% | 0.14% | 98.4% | 0.26% | 98.1% | 0.50% | water absorbed [3]: 0.65%; % TA Area Normalized ([1]; 70° C. Cap Closed, 0 weeks): 98.4%; % Total Deg. Products ([1]; 70° C. Cap Closed, 0 weeks): 0.05%; % TA Area Normalized ([1]; 70° C. Cap Closed, 2 weeks): 98.5%; % Total Deg. Products ([1]; 70° C. Cap Closed, 2 weeks): 0.22%; % TA Area Normalized ([1]; 70° C. Cap Closed, 4 weeks): 98.4%; % Total Deg. Products ([1]; 70° C. Cap Closed, 4 weeks): 0.33%; thermodynamic stability in solvents ([2]; ACN, ethyl acetate): thermodynamically stable in most solvents
